Experimental data reported in patent US20250325675A1, “APTAMER, CONJUGATE, COMPOSITION, METHOD FOR PREPARING SAME, AND USE THEREOF” (priority 2022, published 2025).
{Cy5} = cyanine 5 fluorescent dye

What was measured:
Type in all cases: cell-based
[1] = test system: MCF-7 human breast cancer cells; test: High content imaging: entry of conjugates into MCF-7 cells; conditions: 100 nM, 30 min 37°C
Method: (§1) In this experiment, the entry of conjugate AP1 provided by the present disclosure and comparative conjugate comparative AP10 into different cells was observed by a PerkinElmer High Content Imaging system (Operatta).
(§2) U118MG glioma cells, SVGp12 normal astrocytes, T98G human brain glioma cells, U251 human glioma cells, A549 human non-small cell lung cancer cells, MCF-7 human breast cancer cells, and 293T human kidney epithelial cells were all purchased from the Shanghai Cell Bank of Chinese Academy of Sciences. […] The supernatant was aspirated and DPBS buffer (purchased from Thermo Fisher) was added to wash the plate 2 times (100 μL each time).
(§3) Conjugate AP1 prepared above and yeast tRNA were respectively formulated into conjugate solution 2A with DMEM medium, and the conjugate solution 2A comprised yeast tRNA at a final concentration of 100 μg/mL and conjugate AP1 at a final concentration of 100 nM. […]
(§4) Normalization was performed according to the mean fluorescence intensity of control group 2Y, that is, subtracting the mean fluorescence intensity of control group 2Y from the fluorescence intensity of test group 2X before performing imaging.

[2] = test system: A549 human non-small cell lung cancer tumor spheres; test: High content imaging: entry into A549 tumor spheres; conditions: 100 nM, imaging without washing
Method: In this experiment, the entry of conjugate AP1 provided by the present disclosure and comparative conjugate comparative AP10 into U118MG glioma tumor spheres and A549 human non-small cell lung cancer tumor spheres was observed by a PerkinElmer High Content Imaging system (Operatta).
80 μL fresh, sterilized and unsolidified 2% agarose was added into the culture wells of a 96-well plate. […] Half of the supernatant was aspirated every 48 h and fresh DMEM medium was added along the wall of the culture wells. After 7 days of culture, the cells were observed under the microscope to confirm that complete cell spheres were obtained, indicating successful tumor sphere cultivation.
Each culture well was added with AP1 or comparative AP10 according to the method of experimental Example 2, and imaged in a high content imaging system, with the only difference of directly performing imaging after culture without washing and performing imaging according to the measured fluorescence intensity of Cy5.

[3] = test system: U251 human glioma cells; test: High content imaging: entry of conjugates into U251 cells; conditions: 100 nM, 30 min 37°C
Method: as §1, §2, §3, §4

CY5-CfUfGGAGUfUfCfAGACfGUfGUfUfGCfUfCfUfUfCfCfGAUfCfUfCf (CUGGAGUUCAGACGUGUUGCUCUUCCGAUCUC; 2'-fluoro at CU, RNA at AG, 5' {Cy5}, backbone not given here) [AP1]
strong Cy5 fluorescence signal: Cy5 fluorescence signal in cells [1] | Cy5 fluorescence signal in tumor spheres [2] | Cy5 fluorescence signal in cells [3]
